Experiments:
[1] = test system: recombinant human anti-SARS-CoV antibody 03-018; assay type: binding; design: Binding of antibody 03-018 to linear peptides of the N protein of SARS-CoV Urbani / Binding of antibody 03-018 to looped/cyclic peptides of the N protein of SARS-CoV Urbani: unit not given here
[2] = test system: antibodies in sera from SARS patients (sera 1a, 1b, 2, 6, 37, 62, London, SARS-yellow, SARS-green); assay type: binding, human; design: Binding of serum 6 to linear peptides of protein X1 of SARS-CoV Urbani / Binding of serum 37 to linear peptides of protein X1 of SARS-CoV Urbani / Binding of serum 6 to looped/cyclic peptide (PEPSCAN-ELISA) / Binding of serum 37 to looped/cyclic peptide (PEPSCAN-ELISA) / Binding of serum 37 to looped/cyclic peptides of protein X1 of SARS-CoV Urbani / Binding of serum 6 to linear peptides of protein X2 / Binding of serum 37 to linear peptides of protein X2 / Binding of serum 37 to looped/cyclic peptides of protein X2 of SARS-CoV Urbani / Binding of serum 6 to linear peptides of protein M of SARS-CoV Urbani / Binding of serum 37 to linear peptides of protein M of SARS-CoV Urbani / Binding of serum 6 to looped/cyclic peptides of protein M of SARS-CoV Urbani / Binding of serum 37 to looped/cyclic peptides of protein M of SARS-CoV Urbani / Binding of serum 6 to linear peptides of protein X3 of SARS-CoV Urbani / Binding of serum 37 to linear peptides of protein X3 of SARS-CoV Urbani / Binding of serum 37 to looped/cyclic peptides of protein X3 of SARS-CoV Urbani / Binding of serum 6 to linear peptides of protein X4 of SARS-CoV Urbani / Binding of serum 37 to linear peptides of protein X4 of SARS-CoV Urbani / Binding of serum 37 to looped/cyclic peptides of protein X4 of SARS-CoV Urbani / Binding of serum 6 to linear peptides of protein X5 of SARS-CoV Urbani / Binding of serum 37 to linear peptides of protein X5 of SARS-CoV Urbani / Binding of serum 37 to looped/cyclic peptides of protein X5 of SARS-CoV Urbani / Binding of serum 6 to linear peptides of protein N of SARS-CoV Urbani / Binding of serum 37 to linear peptides of protein N of SARS-CoV Urbani / Binding of serum 6 to linear peptide (PEPSCAN-ELISA) / Binding of serum 1a to looped/cyclic peptides of protein N of SARS-CoV Urbani / Binding of serum 1b to looped/cyclic peptides of protein N of SARS-CoV Urbani / Binding of serum 2 to looped/cyclic peptides of protein N of SARS-CoV Urbani / Binding of serum 6 to looped/cyclic peptides of protein N of SARS-CoV Urbani / Binding of serum 37 to looped/cyclic peptides of protein N of SARS-CoV Urbani / Binding of serum 62 to looped/cyclic peptides of protein N of SARS-CoV Urbani / Binding of serum London to looped/cyclic peptides of protein N of SARS-CoV Urbani / Binding of serum SARS-green to looped/cyclic peptides of protein N of SARS-CoV Urbani: unit not given here
[3] = test system: rabbit serum obtained by immunizing a rabbit with the SARS-CoV strain Frankfurt 1; assay type: binding; design: Binding of a rabbit serum to linear peptides / Binding of a rabbit serum to looped peptides / Rabbit serum linear peptides / Rabbit serum looped peptides / Binding of a rabbit serum to linear peptides of protein N of SARS-CoV Urbani (Rabbit serum linear peptides) / Binding of a rabbit serum to looped/cyclic peptides of protein N of SARS-CoV Urbani (Rabbit serum looped peptides): unit not given here
[4] = test system: control sera (pooled serum of ten healthy LUMC hospital workers; commercial negative donor pooled serum from the Dutch bloodbank); assay type: binding, human; design: Binding of Control serum LUMC to linear peptides / Binding of Control serum Blood-bank to linear peptides / Binding of Control serum LUMC to looped peptides / Binding of Control Serum Blood-Bank to Looped peptides / Binding of Control serum LUMC to linear peptides of the protein M of SARS-CoV Urbani / Binding of Control serum Blood-bank to linear peptides of the protein M of SARS-CoV Urbani / Binding of Control serum LUMC to looped peptides of the protein M of SARS-CoV Urbani / Binding of Control Serum Blood-Bank to Looped peptides of the protein M of SARS-CoV Urbani: unit not given here

| Sequence | Binding of antibody 03-018 to linear peptides of the N protein of SARS-CoV Urbani [1] | Binding of antibody 03-018 to looped/cyclic peptides of the N protein of SARS-CoV Urbani [1] | Binding of serum 1a to linear peptides of protein N of SARS-CoV Urbani [2] | Binding of serum 1a to looped/cyclic peptides of protein N of SARS-CoV Urbani [2] | Binding of serum 1b to linear peptides of protein N of SARS-CoV Urbani [2] | Binding of serum 1b to looped/cyclic peptides of protein N of SARS-CoV Urbani [2] | Binding of serum 2 to linear peptides of protein N of SARS-CoV Urbani [2] | Binding of serum 2 to looped/cyclic peptides of protein N of SARS-CoV Urbani [2] | Binding of serum 6 to linear peptides of protein N of SARS-CoV Urbani [2] | Binding of serum 6 to looped/cyclic peptides of protein N of SARS-CoV Urbani [2] | Binding of serum 37 to linear peptides of protein N of SARS-CoV Urbani [2] | Binding of serum 37 to looped/cyclic peptides of protein N of SARS-CoV Urbani [2] | Binding of serum 62 to linear peptides of protein N of SARS-CoV Urbani [2] | Binding of serum 62 to looped/cyclic peptides of protein N of SARS-CoV Urbani [2] | Binding of serum London to linear peptides of protein N of SARS-CoV Urbani [2] | Binding of serum London to looped/cyclic peptides of protein N of SARS-CoV Urbani [2] | Binding of serum SARS-green to linear peptides of protein N of SARS-CoV Urbani [2] | Binding of serum SARS-green to looped/cyclic peptides of protein N of SARS-CoV Urbani [2] | Binding of serum SARS-yellow to linear peptides of protein N of SARS-CoV Urbani [2] | Binding of serum SARS-yellow to looped/cyclic peptides of protein N of SARS-CoV Urbani [2] | further results |
| --- | --- | --- | --- | --- | --- | --- | --- | --- | --- | --- | --- | --- | --- | --- | --- | --- | --- | --- | --- | --- | --- |
| PSASAFFGMSRIGME | 0.1 | 0.2 | 0.2 | 0.4 | 0.1 | 0.3 | 0.1 | 0.3 | 0.1 | 0.2 | 0.6 | 0.6 | 0.5 | 0.4 | 0.5 | 0.3 | 0.1 | 0.3 | 0.6 | 0.4 | Binding of a rabbit serum to linear peptides of protein N of SARS-CoV Urbani (Rabbit serum linear peptides) [3]: 0.1; Binding of a rabbit serum to looped/cyclic peptides of protein N of SARS-CoV Urbani (Rabbit serum looped peptides) [3]: 0.3; Control Serum Blood-Bank Looped peptides [4]: 0.4; Control serum Blood-bank linear peptides [4]: 0.6; Control serum LUMC linear peptides [4]: 0.6; Control serum LUMC looped peptides [4]: 0.5 |
| PTDSTDNNQNGGRNG | 0.1 | 0.2 | 0.3 | 0.3 | 0.2 | 0.2 | 0.3 | 0.3 | 0.2 | 0.2 | 1.2 | 0.5 | 0.8 | 0.3 | 0.7 | 0.4 | 0.6 | 0.4 | 0.7 | 0.5 | Binding of a rabbit serum to linear peptides of protein N of SARS-CoV Urbani (Rabbit serum linear peptides) [3]: 0.1; Binding of a rabbit serum to looped/cyclic peptides of protein N of SARS-CoV Urbani (Rabbit serum looped peptides) [3]: 0.1; Binding of Control Serum Blood-Bank to Looped peptides [4]: 0.5; Binding of Control serum Blood-bank to linear peptides [4]: 1.0; Binding of Control serum LUMC to linear peptides [4]: 0.8; Binding of Control serum LUMC to looped peptides [4]: 0.4 |
| PTEPKKDKKKKTDEA | 0.1 | 0.2 | 0.2 | 0.2 | 0.1 | 0.1 | 2.0 | 0.3 | 0.2 | 0.1 | 0.6 | 0.3 | 0.7 | 0.3 | 0.5 | 0.3 | 0.2 | 0.0 | 0.5 | 0.2 | Binding of a rabbit serum to linear peptides of protein N of SARS-CoV Urbani (Rabbit serum linear peptides) [3]: 0.1; Binding of a rabbit serum to looped/cyclic peptides of protein N of SARS-CoV Urbani (Rabbit serum looped peptides) [3]: 0.2; Control Serum Blood-Bank Looped peptides [4]: 0.4; Control serum Blood-bank linear peptides [4]: 0.6; Control serum LUMC linear peptides [4]: 0.6; Control serum LUMC looped peptides [4]: 0.3 |

Source: patent publication US20070128217A1 (priority 2003, published 2007)
